In patent publication US8101605B2, “SHIP1 modulators and methods related thereto” (Aquinox Pharmaceuticals Inc., priority 2009, dated 2012):

Columns and labels:
His-hSHIP1 enzyme = target: T1, His-hSHIP1 enzyme (Homo sapiens, UniProt Q92835); assay: His-hSHIP1 phosphatase activity assay (IP4 substrate, Biomol Green); type: biochemical; conditions: percentage increase relative to background; concentrations ≦300 μM
T1 sequence (Q92835 1-1189): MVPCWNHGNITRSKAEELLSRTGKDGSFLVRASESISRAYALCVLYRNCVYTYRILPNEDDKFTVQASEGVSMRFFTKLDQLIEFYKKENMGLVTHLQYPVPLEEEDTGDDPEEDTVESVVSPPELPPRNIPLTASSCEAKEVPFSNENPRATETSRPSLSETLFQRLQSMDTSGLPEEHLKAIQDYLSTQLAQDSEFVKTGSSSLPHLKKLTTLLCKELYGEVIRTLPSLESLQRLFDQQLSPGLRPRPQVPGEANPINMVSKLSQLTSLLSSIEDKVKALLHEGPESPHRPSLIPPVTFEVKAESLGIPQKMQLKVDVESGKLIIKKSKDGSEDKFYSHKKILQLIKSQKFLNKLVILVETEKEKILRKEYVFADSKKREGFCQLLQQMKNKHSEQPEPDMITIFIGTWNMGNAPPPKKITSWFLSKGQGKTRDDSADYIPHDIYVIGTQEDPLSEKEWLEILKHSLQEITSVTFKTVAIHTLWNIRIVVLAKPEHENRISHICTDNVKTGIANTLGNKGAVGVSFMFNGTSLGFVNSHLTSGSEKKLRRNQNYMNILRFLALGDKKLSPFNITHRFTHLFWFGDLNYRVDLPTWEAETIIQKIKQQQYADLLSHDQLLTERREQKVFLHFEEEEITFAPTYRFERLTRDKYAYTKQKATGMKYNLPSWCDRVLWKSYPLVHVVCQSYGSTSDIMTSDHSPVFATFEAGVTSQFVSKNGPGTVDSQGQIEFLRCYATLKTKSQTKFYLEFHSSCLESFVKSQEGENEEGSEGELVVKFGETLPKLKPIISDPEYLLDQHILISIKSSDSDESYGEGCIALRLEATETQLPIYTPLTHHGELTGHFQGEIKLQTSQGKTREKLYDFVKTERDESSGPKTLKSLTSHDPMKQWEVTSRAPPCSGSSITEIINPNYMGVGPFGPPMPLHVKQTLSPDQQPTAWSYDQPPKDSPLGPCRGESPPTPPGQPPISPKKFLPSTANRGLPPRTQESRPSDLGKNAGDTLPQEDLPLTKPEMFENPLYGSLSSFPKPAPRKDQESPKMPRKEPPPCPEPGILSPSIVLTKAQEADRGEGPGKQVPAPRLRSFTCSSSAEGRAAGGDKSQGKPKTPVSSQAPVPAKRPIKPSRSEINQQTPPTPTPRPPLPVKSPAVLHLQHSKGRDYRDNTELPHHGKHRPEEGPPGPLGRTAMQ
In short: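 His-hSHIP1 (15–20 ng) was incubated with IP4 (50 μM final) and compound (0–300 μM final, from 10% ethanol solutions) in 20 mM Tris-HCl, 10 mM MgCl2 pH 7.5, 0.02% Tween 20 for 15 min at 37 °C. Released phosphate was read with Biomol Green at 650 nm. Activation is % increase over background, scored + (<50%), ++ (≥50% but <65%), +++ (≥65%).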

[1] = test system: allergen-induced passive cutaneous anaphylaxis; assay: Passive cutaneous anaphylaxis in rats; type: in vivo; conditions: oral gavage
Procedure: The activity of representative compounds on passive cutaneous anaphylaxis in rats was evaluated according to the procedures disclosed by Goose et al., Immunology 16, 749-760, 1969, which is incorporated herein by reference in its entirety. To induce a passive cutaneous anaphylaxis, rats underwent dorsal intradermal inoculation with 50 μL of anti-ovalbumin-IgE. Sixteen hours after inoculation, all rats were administered test compound by oral gavage (PO). Sixty minutes after oral administration, rats were given a tail vein injection of 5 mg Evan's blue and 1 mg ovalbumin. Sixty minutes following the ovalbumin injection, rats were euthanized using CO2 inhalation. Subsequently, skin edema was visualized, measured and scored. When tested in this assay, representative Compound.

Structure (SMILES) | Scoring: percent (%) activation of His-hSHIP1 enzyme (His-hSHIP1 enzyme) | inhibition of allergen-induced passive cutaneous anaphylaxis ([1]; 30 mg/kg) [%] | inhibition of allergen-induced passive cutaneous anaphylaxis ([1]; 100 mg/kg) [%]
Cc1cc(O)cc2c1[C@]1(C)CC[C@H]3C(C)(C)CCC[C@]3(C)[C@H]1CO2 [Compound No. 6, (1R,10R,11S,16S)-1,3,11,15,15-pentamethyl-8-oxatetracyclo[8.8.0.0^2,7.0^11,16]octadeca-2,4,6-trien-5-ol] | + (<50%) | 14 | 29
CC1(C)CCC[C@]2(C)[C@H]3CS(=O)(=O)c4cc(O)cc(O)c4[C@]3(C)CC[C@@H]12 [Compound No. 28, (1R,10R,11S,16S)-3,5-dihydroxy-1,11,15,15-tetramethyl-8-thiatetracyclo[8.8.0.0^2,7.0^11,16]octadeca-2,4,6-triene-8,8-dione] | +++ (≧65%) | 26 | 38
